ChEMBL document CHEMBL4507323, “Data for DCP probe Ogerin” (2021)
Each block holds one compound with its values, some of them ahead of it.

Assays:
[1] = target: Muscarinic acetylcholine receptor M3 (Homo sapiens) (UniProt P20309); details: Compound concentration 10.0 uM
[2] = target: D(1A) dopamine receptor (Homo sapiens) (UniProt P21728); details: Compound concentration 10.0 uM
[3] = target: Sodium-dependent serotonin transporter (Homo sapiens) (UniProt P31645); details: Compound concentration 10.0 uM
[4] = target: 5-hydroxytryptamine receptor 1D (Homo sapiens) (UniProt P28221); details: Compound concentration 10.0 uM
Rattus norvegicus = species on record: Rattus norvegicus; details: Compound concentration 10.0 uM
[5] = target: Beta-1 adrenergic receptor (Homo sapiens) (UniProt P08588); details: Compound concentration 10.0 uM
Beta-1 adrenergic receptor (Homo sapiens), sequence (P08588 whole entry, looked up): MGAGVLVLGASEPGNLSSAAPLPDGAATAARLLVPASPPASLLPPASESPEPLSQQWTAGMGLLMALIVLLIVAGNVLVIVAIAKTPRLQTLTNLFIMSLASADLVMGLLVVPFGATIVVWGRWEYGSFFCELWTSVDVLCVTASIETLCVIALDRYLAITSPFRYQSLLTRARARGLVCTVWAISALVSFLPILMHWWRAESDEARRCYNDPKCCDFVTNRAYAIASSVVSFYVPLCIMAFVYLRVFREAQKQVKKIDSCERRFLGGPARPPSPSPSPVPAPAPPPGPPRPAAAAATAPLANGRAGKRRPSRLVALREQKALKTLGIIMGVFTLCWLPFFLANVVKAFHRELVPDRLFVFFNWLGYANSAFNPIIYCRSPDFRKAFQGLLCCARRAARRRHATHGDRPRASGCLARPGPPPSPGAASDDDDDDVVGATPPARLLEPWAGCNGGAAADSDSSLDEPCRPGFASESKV

[6] = target: Alpha-2C adrenergic receptor (Homo sapiens) (UniProt P18825); details: Compound concentration 10.0 uM
[7] = target: Histamine H4 receptor (Homo sapiens) (UniProt Q9H3N8); details: Compound concentration 10.0 uM
[8] = target: Beta-3 adrenergic receptor (Homo sapiens) (UniProt P13945); details: Compound concentration 10.0 uM
[9] = target: 5-hydroxytryptamine receptor 1B (Homo sapiens) (UniProt P28222); details: Compound concentration 10.0 uM
[10] = target: D(1B) dopamine receptor (Homo sapiens) (UniProt P21918); details: Compound concentration 10.0 uM
[11] = target: Alpha-2A adrenergic receptor (Homo sapiens) (UniProt P08913); details: Compound concentration 10.0 uM
Alpha-2A adrenergic receptor (Homo sapiens), sequence (P08913 whole entry): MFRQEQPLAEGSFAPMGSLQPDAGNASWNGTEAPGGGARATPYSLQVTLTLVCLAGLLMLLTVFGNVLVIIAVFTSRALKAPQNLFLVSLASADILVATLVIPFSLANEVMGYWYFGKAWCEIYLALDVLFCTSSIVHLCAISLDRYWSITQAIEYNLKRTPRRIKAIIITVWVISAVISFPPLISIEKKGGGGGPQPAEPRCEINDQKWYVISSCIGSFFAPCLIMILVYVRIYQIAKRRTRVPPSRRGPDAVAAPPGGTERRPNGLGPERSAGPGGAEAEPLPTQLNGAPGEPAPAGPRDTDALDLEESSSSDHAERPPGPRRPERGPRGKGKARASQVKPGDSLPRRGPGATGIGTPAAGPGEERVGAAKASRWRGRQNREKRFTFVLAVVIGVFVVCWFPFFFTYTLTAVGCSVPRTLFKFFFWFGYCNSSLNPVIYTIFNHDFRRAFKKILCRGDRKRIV

[12] = target: Mu-type opioid receptor (Homo sapiens) (UniProt P35372); details: Compound concentration 10.0 uM
[13] = target: D(4) dopamine receptor (Homo sapiens) (UniProt P21917); details: Compound concentration 10.0 uM
[14] = target: T1, 5-hydroxytryptamine receptor 2B (Homo sapiens, UniProt P41595); assay: GPCRScan assay: inhibition of 5-HT2B; design: radioligand conc. used [nm] 1.0 – 2.0, parental cells stable HEK
T1 sequence (P41595 whole entry): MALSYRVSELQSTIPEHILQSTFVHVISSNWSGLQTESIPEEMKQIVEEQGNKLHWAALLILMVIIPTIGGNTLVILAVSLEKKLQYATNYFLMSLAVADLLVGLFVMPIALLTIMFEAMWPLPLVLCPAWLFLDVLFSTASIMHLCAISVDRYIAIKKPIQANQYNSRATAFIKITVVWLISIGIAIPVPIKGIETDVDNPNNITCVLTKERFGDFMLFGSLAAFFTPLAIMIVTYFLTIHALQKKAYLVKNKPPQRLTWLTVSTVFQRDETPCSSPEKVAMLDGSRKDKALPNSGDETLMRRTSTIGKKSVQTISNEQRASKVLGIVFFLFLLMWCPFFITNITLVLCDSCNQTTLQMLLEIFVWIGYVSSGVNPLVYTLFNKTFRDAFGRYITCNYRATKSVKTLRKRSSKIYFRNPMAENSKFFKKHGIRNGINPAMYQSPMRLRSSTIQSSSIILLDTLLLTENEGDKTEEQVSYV

[15] = target: Alpha-1A adrenergic receptor (Homo sapiens) (UniProt P35348); details: Compound concentration 10.0 uM
[16] = target: T1, 5-hydroxytryptamine receptor 2B; details: Compound concentration 10.0 uM
[17] = target: Muscarinic acetylcholine receptor M1 (Homo sapiens) (UniProt P11229); details: Compound concentration 10.0 uM
[18] = target: 5-hydroxytryptamine receptor 3A (Homo sapiens) (UniProt P46098); details: Compound concentration 10.0 uM
[19] = target: Kappa-type opioid receptor (Homo sapiens) (UniProt P41145); details: Compound concentration 10.0 uM
Kappa-type opioid receptor (Homo sapiens), sequence (P41145 whole entry): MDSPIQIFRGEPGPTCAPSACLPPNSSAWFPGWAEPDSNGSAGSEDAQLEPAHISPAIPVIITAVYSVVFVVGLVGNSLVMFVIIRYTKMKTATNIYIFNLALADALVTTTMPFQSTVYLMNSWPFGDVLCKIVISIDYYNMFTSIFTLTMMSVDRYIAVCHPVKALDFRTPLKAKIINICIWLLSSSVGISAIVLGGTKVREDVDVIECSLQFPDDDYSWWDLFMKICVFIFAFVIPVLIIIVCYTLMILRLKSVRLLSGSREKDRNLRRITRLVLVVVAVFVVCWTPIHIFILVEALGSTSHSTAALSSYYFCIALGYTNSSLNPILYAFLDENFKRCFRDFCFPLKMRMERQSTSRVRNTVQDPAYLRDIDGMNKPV

[20] = target: T2, GABA-A receptor; anion channel (Rattus norvegicus) (UniProt O09028+P15431+P18506+P18508+P19969+P20236+P23574+P23576+P28471+P28473+P30191+P62813+P63079+P63138+Q91ZM7+Q9ES14); details: Compound concentration 10.0 uM
[21] = target: Delta-type opioid receptor (Homo sapiens) (UniProt P41143); details: Compound concentration 10.0 uM
[22] = target: D(2) dopamine receptor (Homo sapiens) (UniProt P14416); details: Compound concentration 10.0 uM
[23] = target: Histamine H1 receptor (Homo sapiens) (UniProt P35367); details: Compound concentration 10.0 uM
[24] = target: Alpha-2B adrenergic receptor (Homo sapiens) (UniProt P18089); details: Compound concentration 10.0 uM
[25] = target: Muscarinic acetylcholine receptor M4 (Homo sapiens) (UniProt P08173); details: Compound concentration 10.0 uM
[26] = target: Sodium-dependent dopamine transporter (Homo sapiens) (UniProt Q01959); details: Compound concentration 10.0 uM
Sodium-dependent dopamine transporter (Homo sapiens), sequence (Q01959 whole entry): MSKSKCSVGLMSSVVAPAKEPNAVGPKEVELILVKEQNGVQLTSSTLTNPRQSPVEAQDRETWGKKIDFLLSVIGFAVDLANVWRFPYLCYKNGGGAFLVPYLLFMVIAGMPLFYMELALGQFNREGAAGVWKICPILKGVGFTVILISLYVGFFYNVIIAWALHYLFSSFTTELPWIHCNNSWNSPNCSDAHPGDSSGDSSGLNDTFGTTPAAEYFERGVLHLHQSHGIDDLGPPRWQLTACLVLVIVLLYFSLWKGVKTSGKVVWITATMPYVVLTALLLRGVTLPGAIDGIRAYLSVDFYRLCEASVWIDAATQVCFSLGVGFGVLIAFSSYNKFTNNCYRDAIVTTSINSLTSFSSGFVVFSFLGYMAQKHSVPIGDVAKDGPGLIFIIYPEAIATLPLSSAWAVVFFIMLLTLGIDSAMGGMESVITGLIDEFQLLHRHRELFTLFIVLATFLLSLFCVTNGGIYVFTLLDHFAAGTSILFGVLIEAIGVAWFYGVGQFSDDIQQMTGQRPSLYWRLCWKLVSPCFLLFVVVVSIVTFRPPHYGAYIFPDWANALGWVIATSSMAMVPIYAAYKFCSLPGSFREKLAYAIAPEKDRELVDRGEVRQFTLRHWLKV

[27] = target: 5-hydroxytryptamine receptor 6 (Homo sapiens) (UniProt P50406); details: Compound concentration 10.0 uM
[28] = target: Sodium-dependent noradrenaline transporter (Homo sapiens) (UniProt P23975); details: Compound concentration 10.0 uM
Sodium-dependent noradrenaline transporter (Homo sapiens), sequence (P23975 whole entry): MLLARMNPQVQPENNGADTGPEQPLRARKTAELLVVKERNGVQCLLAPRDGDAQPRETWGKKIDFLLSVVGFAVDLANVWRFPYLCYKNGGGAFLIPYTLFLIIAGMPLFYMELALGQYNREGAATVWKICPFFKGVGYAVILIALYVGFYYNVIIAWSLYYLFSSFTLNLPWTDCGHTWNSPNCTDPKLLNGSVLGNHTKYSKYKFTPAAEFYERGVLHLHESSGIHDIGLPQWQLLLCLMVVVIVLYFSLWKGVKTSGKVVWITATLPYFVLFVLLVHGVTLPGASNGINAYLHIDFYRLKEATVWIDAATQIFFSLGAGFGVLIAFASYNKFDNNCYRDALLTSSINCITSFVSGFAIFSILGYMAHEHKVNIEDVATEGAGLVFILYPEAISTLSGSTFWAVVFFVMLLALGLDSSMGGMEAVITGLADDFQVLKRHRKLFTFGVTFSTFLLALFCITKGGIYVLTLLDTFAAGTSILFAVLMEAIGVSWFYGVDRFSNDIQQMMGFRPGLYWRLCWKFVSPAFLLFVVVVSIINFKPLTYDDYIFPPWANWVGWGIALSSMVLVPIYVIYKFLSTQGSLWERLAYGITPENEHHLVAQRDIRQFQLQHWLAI

[29] = target: T2, GABA-A receptor; anion channel (Rattus norvegicus); details: Compound concentration 10.0 uM; remark: listed apart in the source
[30] = target: 5-hydroxytryptamine receptor 2A (Homo sapiens) (UniProt P28223); details: Compound concentration 10.0 uM
5-hydroxytryptamine receptor 2A (Homo sapiens), sequence (P28223 whole entry): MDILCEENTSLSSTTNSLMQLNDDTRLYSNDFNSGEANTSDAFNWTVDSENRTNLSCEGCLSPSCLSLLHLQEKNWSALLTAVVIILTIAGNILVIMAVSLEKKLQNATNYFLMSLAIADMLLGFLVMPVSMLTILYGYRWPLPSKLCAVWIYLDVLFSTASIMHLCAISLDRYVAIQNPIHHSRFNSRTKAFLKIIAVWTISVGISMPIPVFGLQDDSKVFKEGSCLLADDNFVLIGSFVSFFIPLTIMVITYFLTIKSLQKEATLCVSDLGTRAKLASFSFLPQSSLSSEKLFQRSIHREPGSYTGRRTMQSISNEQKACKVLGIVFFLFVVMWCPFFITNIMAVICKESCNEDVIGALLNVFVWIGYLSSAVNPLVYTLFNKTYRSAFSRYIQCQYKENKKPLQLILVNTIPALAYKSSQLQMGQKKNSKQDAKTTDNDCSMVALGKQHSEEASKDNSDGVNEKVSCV

[31] = target: Beta-2 adrenergic receptor (Homo sapiens) (UniProt P07550); details: Compound concentration 10.0 uM
[32] = target: 5-hydroxytryptamine receptor 1A (Homo sapiens) (UniProt P08908); details: Compound concentration 10.0 uM
[33] = target: D(3) dopamine receptor (Homo sapiens) (UniProt P35462); details: Compound concentration 10.0 uM
[34] = target: 5-hydroxytryptamine receptor 2C (Homo sapiens) (UniProt P28335); details: Compound concentration 10.0 uM
[35] = target: 5-hydroxytryptamine receptor 7 (Homo sapiens) (UniProt P34969); details: Compound concentration 10.0 uM
[36] = target: Histamine H3 receptor (Homo sapiens) (UniProt Q9Y5N1); details: Compound concentration 10.0 uM
[37] = target: 5-hydroxytryptamine receptor 5A (Homo sapiens) (UniProt P47898); details: Compound concentration 10.0 uM
5-hydroxytryptamine receptor 5A (Homo sapiens), sequence (P47898 whole entry): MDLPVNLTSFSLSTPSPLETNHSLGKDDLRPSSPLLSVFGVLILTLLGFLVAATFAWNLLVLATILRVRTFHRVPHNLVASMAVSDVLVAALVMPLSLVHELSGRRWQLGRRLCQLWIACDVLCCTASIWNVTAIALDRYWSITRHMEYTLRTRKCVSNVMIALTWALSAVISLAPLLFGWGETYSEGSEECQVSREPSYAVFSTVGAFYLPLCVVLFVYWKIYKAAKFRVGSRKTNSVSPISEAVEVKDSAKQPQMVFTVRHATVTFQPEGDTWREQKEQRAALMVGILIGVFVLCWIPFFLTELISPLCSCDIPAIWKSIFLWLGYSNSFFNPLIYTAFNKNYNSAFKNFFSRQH

[38] = target: Muscarinic acetylcholine receptor M2 (Homo sapiens) (UniProt P08172); details: Compound concentration 10.0 uM
[39] = target: Alpha-1D adrenergic receptor (Homo sapiens) (UniProt P25100); details: Compound concentration 10.0 uM
Alpha-1D adrenergic receptor (Homo sapiens), sequence (P25100 whole entry): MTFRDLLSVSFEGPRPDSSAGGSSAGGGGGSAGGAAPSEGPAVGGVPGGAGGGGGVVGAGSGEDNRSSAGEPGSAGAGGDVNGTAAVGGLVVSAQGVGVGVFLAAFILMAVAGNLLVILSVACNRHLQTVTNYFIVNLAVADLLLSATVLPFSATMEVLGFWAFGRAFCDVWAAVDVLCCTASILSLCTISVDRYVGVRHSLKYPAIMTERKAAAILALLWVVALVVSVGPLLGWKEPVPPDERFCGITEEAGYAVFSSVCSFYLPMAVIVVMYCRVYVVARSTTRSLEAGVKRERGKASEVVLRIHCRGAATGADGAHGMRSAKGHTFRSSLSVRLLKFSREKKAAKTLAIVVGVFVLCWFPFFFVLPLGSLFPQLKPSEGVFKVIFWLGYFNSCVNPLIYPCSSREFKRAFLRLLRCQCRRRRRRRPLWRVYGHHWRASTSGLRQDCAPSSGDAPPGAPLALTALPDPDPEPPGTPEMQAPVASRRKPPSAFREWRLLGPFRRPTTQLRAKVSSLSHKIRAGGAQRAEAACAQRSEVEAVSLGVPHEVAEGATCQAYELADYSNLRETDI

[40] = target: Sigma non-opioid intracellular receptor 1 (Homo sapiens) (UniProt Q99720); details: Compound concentration 10.0 uM
Sigma non-opioid intracellular receptor 1 (Homo sapiens), sequence (Q99720 whole entry): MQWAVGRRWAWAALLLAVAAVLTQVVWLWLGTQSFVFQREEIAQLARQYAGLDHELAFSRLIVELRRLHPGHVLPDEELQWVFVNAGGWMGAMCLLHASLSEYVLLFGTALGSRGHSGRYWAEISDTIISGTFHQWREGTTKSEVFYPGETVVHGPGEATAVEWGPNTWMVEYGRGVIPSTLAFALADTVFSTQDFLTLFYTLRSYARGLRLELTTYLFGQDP

[41] = target: Sigma intracellular receptor 2 (Homo sapiens) (UniProt Q5BJF2); details: Compound concentration 10.0 uM
Sigma intracellular receptor 2 (Homo sapiens), sequence (Q5BJF2 whole entry): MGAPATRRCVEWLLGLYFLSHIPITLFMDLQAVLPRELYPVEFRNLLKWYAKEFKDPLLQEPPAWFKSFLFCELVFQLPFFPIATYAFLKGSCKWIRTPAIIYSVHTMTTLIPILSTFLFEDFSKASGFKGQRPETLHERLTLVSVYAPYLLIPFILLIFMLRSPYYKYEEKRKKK

[42] = target: Muscarinic acetylcholine receptor M5 (Homo sapiens) (UniProt P08912); details: Compound concentration 10.0 uM
[43] = target: 5-hydroxytryptamine receptor 1A (Homo sapiens, UniProt P08908); assay: GPCRScan assay: inhibition of 5-HT1A; design: radioligand conc. used [nm] 0.5 – 1.0, parental cells stable CHO
[44] = target: Histamine H2 receptor (Homo sapiens) (UniProt P25021); details: Compound concentration 10.0 uM
[45] = target: Alpha-1B adrenergic receptor (Homo sapiens) (UniProt P35368); details: Compound concentration 10.0 uM

inhibition [1]: 36%
inhibition [2]: 33.7%
inhibition [3]: 4.96%
inhibition [4]: 11.2%
inhibition (Rattus norvegicus): 12.9%
pEC50 (FLIPR-TETRA assay): 6.83
inhibition [5]: 25.5%
inhibition [6]: 0.87%
inhibition [7]: 8.3%
inhibition [8]: 14.8%
inhibition [9]: 7.41%
inhibition [10]: 43.9%
inhibition [11]: 24.4%
inhibition [12]: 11.9%
inhibition [13]: 4.35%
Ki ([14]; read-out: Ki): 496 nM
Ki ([14]; read-out: pKi (converted)): 490 nM
inhibition [15]: 25.5%
inhibition [16]: 81%
inhibition [17]: 23.6%
inhibition [18]: 2.24%
inhibition [19]: 30.2%
inhibition [20]: 19.7%
inhibition [21]: 12.5%
inhibition [22]: 10%
inhibition [23]: -4.07%
inhibition [24]: 43.9%
inhibition [25]: -9.42%
inhibition [26]: 18.1%
inhibition [27]: 19.4%
inhibition [28]: 32.1%
inhibition [29]: 32.9%
inhibition [30]: 2.78%
inhibition [31]: 20.7%
inhibition [32]: 9.7%
inhibition [33]: 18.9%
inhibition [34]: 9.32%
inhibition [35]: 43.9%
inhibition [36]: -1.93%
inhibition [37]: 10.6%
inhibition [38]: 23.2%
inhibition [39]: 4.63%
inhibition [40]: -0.41%
SMILES: Nc1nc(NCc2ccccc2)nc(-c2ccccc2CO)n1 [Ogerin]

inhibition [1]: 18.3%
inhibition [41]: 12.3%
inhibition [2]: 3.99%
inhibition [3]: 9.44%
inhibition [42]: 12.8%
inhibition [4]: 13.7%
Ki ([43]; read-out: Ki): 850 nM
Ki ([43]; read-out: pKi (converted)): 832 nM
inhibition (Rattus norvegicus): 8.6%
inhibition [44]: 4.01%
inhibition [5]: -3.07%
inhibition [6]: 1.4%
inhibition [7]: -9.05%
inhibition [8]: 17.8%
inhibition [9]: -2.86%
inhibition [11]: 7.24%
inhibition [12]: 8.68%
inhibition [13]: 24.4%
inhibition [15]: 5.91%
inhibition [16]: 41.8%
inhibition [17]: 35.2%
inhibition [18]: 37.2%
inhibition [19]: 10.8%
inhibition [21]: 9.2%
inhibition [22]: -7.4%
inhibition [23]: -5.64%
inhibition [24]: 21.8%
inhibition [25]: 21.6%
inhibition [26]: -9.76%
inhibition [27]: 26.7%
inhibition [28]: 43.6%
inhibition [29]: 18.3%
inhibition [30]: 1.28%
inhibition [31]: 18%
inhibition [32]: 65.5%
inhibition [33]: 8.38%
inhibition [34]: 3.72%
inhibition [35]: 15.9%
inhibition [36]: 6.14%
inhibition [37]: 0.66%
inhibition [38]: 10.8%
inhibition [39]: -8.75%
inhibition [45]: 5.01%
inhibition [40]: 0.95%
SMILES: Nc1nc(NCc2ccccc2)nc(-c2cccc(CO)c2)n1 [ZINC32547799]
